SMILES strings stand for the structures. Like-named read-outs stand apart in the source and are kept apart here.

Assay [1] has as its target T1, AHR (Homo sapiens, UniProt P35869).
T1 construct: U87 MG glioblastoma cells (ATCC #HTB-14) endogenously expressing AHR; endogenous in cells; host or cells: U87 MG glioblastoma cells (ATCC #HTB-14)
T1 sequence (P35869 11-848): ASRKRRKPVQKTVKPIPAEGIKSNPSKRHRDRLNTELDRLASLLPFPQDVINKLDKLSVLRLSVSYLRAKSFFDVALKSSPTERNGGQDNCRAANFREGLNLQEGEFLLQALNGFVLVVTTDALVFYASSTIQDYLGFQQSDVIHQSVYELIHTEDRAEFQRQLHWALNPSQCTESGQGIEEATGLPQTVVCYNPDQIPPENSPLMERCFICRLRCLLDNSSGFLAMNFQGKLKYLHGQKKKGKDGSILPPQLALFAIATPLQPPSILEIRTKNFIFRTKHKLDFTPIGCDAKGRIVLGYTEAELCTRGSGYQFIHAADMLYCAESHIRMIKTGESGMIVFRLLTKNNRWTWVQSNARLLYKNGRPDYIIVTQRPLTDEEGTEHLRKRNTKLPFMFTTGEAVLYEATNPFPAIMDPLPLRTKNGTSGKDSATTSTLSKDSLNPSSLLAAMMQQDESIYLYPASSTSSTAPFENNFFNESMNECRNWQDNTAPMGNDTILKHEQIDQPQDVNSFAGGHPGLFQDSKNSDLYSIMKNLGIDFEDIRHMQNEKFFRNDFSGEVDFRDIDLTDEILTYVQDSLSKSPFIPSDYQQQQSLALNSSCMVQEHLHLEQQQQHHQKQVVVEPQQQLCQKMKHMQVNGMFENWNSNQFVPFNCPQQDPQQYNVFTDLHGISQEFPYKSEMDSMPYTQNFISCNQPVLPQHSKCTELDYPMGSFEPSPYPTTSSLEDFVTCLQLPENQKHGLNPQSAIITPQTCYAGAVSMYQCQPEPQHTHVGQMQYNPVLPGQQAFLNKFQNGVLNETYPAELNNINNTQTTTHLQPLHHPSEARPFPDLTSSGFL
Description: In vitro assay 1: antagonism in human cell line (AHR transactivation, firefly luciferase reporter, kynurenic acid prestimulated). To be noted: AHR Antagonism Human IC50 [M]. The class given is cell-based. The gist of the method:
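Antagonism is measured against kynurenic acid prestimulation in U87 MG glioblastoma cells carrying stable DRE-luciferase and Renilla reporters. Positive inhibition control: 150 μM kynurenic acid with 5 μM staurosporine. Values are normalized to controls; repeats are averaged or given as medians.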

Assay [2] concerns the target T2, AHR (Mus musculus, UniProt P30561).
T2 sequence (P30561 1-848 P471L/N533S/M589L): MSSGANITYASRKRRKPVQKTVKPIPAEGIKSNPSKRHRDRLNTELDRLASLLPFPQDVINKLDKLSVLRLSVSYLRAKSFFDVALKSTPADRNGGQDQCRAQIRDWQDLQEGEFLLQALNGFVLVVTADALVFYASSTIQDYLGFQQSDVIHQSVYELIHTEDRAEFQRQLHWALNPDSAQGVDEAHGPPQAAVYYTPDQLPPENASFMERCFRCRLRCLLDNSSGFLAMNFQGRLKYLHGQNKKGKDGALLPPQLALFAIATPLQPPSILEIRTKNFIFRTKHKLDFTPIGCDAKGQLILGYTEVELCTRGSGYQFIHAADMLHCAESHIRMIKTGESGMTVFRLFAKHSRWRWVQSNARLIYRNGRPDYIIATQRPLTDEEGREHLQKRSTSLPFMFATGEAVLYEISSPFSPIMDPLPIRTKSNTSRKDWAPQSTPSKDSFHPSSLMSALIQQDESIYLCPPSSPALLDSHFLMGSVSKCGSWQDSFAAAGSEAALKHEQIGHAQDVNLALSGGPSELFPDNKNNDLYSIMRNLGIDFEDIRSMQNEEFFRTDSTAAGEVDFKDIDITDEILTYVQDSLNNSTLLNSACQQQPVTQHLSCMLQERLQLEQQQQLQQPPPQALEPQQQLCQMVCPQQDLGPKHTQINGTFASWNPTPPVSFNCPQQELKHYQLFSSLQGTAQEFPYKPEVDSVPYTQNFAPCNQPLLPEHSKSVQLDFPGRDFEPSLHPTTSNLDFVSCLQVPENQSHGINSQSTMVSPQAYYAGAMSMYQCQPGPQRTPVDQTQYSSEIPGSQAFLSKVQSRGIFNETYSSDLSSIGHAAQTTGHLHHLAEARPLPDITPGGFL
Description: In vitro assay 3: antagonism in mouse cell line (AHR transactivation, firefly luciferase reporter, kynurenic acid prestimulated). The class given is cell-based. As to conditions: 200 μM kynurenic acid, 20 hours, read-out: AHR Antagonism Mouse IC50. The method, boiled down:
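Kynurenic acid-prestimulated mouse reporter cells; stable AHR-inducible firefly luc construct with DRE sites in promoter. No-agonist wells = positive inhibition ctrl. Luminescence normalized to pos/neg ctrls; n>1 reported as mean or median.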

[3] abbreviates: Hepa 1c1c7 cells, firefly luciferase reporter.

As to `CCCNC(=O)[C@@H](CC)Nc1nc2c(Br)cccc2c2nc(-c3ccc(Cl)cc3OC(F)F)nn12` [Example 797, (2R)-2-({7-bromo-2-[4-chloro-2-(difluoromethoxy)phenyl][1,2,4]triazolo[1,5-c]quinazolin-5-yl}amino)-N-propylbutanamide], the IC50 (commonly the concentration needed to halve the response being measured) at AHR [1] (firefly luciferase reporter) came out at 1.58e-09 M; on AHR [2] (setting [3]) it was 0.963 nM.

In the case of `O=C1NCCC[C@H]1Nc1nc2ccccc2c2nc(-c3ccccc3OC(F)F)nn12` [Example 472, (3R)-3-({2-[2-(difluoromethoxy)phenyl][1,2,4]triazolo[1,5-c]quinazolin-5-yl}amino)piperidin-2-one], the IC50 came out at 3.72e-08 M at AHR [1] and 38.1 nM at AHR [2] (mouse Hepa 1c1c7 cells).

For the molecule `COc1cccc(-c2nc3c4ccc(F)cc4nc(N[C@H]4CCCCNC4=O)n3n2)c1` [Example 150, (3S)-3-{[8-fluoro-2-(3-methoxyphenyl)[1,2,4]triazolo[1,5-c]quinazolin-5-yl]amino}azepan-2-one], the 50% inhibitory concentration (IC50) was 1.97e-07 M at AHR [1] and 48.8 nM at AHR [2] (mouse Hepa 1c1c7 cells).

In the case of `COc1cccc(-c2nc3c4ccc(F)cc4nc(N[C@H]4CCCNC4=O)n3n2)c1` [Example 151, (3S)-3-{[8-fluoro-2-(3-methoxyphenyl)[1,2,4]triazolo[1,5-c]quinazolin-5-yl]amino}piperidin-2-one], the results for the IC50 against AHR [1] and on AHR [2] (mouse Hepa 1c1c7 cells) were 2.36e-06 M and 343 nM, respectively.

As for `CN1CC[C@@H](Nc2nc3ccccc3c3nc(-c4cccc(OC(F)(F)F)c4)nn23)C1=O` [Example 312, (3R)-1-methyl-3-({2-[3-(trifluoromethoxy)phenyl][1,2,4]triazolo[1,5-c]quinazolin-5-yl}amino)pyrrolidin-2-one], the IC50 amounted to 7.19e-08 M against AHR [1] and 22 nM at AHR [2] (mouse Hepa 1c1c7 cells).

As to `CN(C)CCn1cc(-c2nc3c4ccccc4nc(N[C@@H]4CCCCNC4=O)n3n2)cn1` [Example 599, (3R)-3-[(2-{1-[2-(dimethylamino)ethyl]-1H-pyrazol-4-yl}[1,2,4]triazolo[1,5-c]quinazolin-5-yl)amino]azepan-2-one], the IC50 worked out at 5.81e-07 M on AHR [1] and 2120 nM on AHR [2] (mouse Hepa 1c1c7 cells).

Consider `O=C1NCCCC[C@H]1Nc1nc2ccccc2c2nc(-c3ccc(F)c(F)c3)nn12` [Example 633, (3R)-3-{[2-(3,4-difluorophenyl)[1,2,4]triazolo[1,5-c]quinazolin-5-yl]amino}azepan-2-one], for which the half-maximal inhibitory concentration (IC50) on AHR [1] was determined as 1.14e-09 M; on AHR [2] (mouse Hepa 1c1c7 cells), 0.64 nM.

As for `COc1cccc(-c2nc3c4ccccc4nc(N[C@H](C(N)=O)C(C)C)n3n2)c1` [Example 83, N^2-[2-(3-methoxyphenyl)[1,2,4]triazolo[1,5-c]quinazolin-5-yl]-L-valinamide], the IC50 against AHR [1] came out at 6.99e-07 M; on AHR [2] (mouse Hepa 1c1c7 cells), 115 nM.

As for `CCC[C@@H](Nc1nc2ccccc2c2nc(-c3cc(C(F)(F)F)ccn3)nn12)C(=O)NC` [Example 368, N-methyl-N^2-{2-[4-(trifluoromethyl)pyridin-2-yl][1,2,4]triazolo[1,5-c]quinazolin-5-yl}-D-norvalinamide], the IC50 came to 5e-08 M on AHR [1] and 24.8 nM at AHR [2] (mouse Hepa 1c1c7 cells).

`O=C1NCCNC[C@H]1Nc1nc2c(C(F)(F)F)cccc2c2nc(-c3ccc(Cl)cc3OC(F)(F)F)nn12` [Example 710, (6R)-6-({2-[4-chloro-2-(trifluoromethoxy)phenyl]-7-(trifluoromethyl)[1,2,4]triazolo[1,5-c]quinazolin-5-yl}amino)-1,4-diazepan-5-one]: the half-maximal inhibitory concentration (IC50) against AHR [1] was determined as 4.84e-09 M; on AHR [2] (mouse Hepa 1c1c7 cells) it was 1.8 nM.

On to `O=C1NCCCC[C@H]1Nc1nc2ccccc2c2nc(-c3cn[nH]c3)nn12` [Example 69, (3R)-3-{[2-(1H-pyrazol-4-yl)[1,2,4]triazolo[1,5-c]quinazolin-5-yl]amino}azepan-2-one], for which the IC50 was 3.59e-07 M at AHR [1] and 460 nM at AHR [2] (mouse Hepa 1c1c7 cells).

As to `Cn1ccc(-c2nc3c4ccccc4nc(N[C@@H]4CCCCNC4=O)n3n2)n1` [Example 63, (3R)-3-{[2-(1-methyl-1H-pyrazol-3-yl)[1,2,4]triazolo[1,5-c]quinazolin-5-yl]amino}azepan-2-one], the IC50 was found to be 2.87e-08 M against AHR [1] and 41.9 nM on AHR [2] (mouse Hepa 1c1c7 cells).

With `CC(C)Oc1ccc(-c2nc3c4ccccc4nc(N[C@@H]4CCCCNC4=O)n3n2)cc1` [Example 613, (3R)-3-[(2-{4-[(propan-2-yl)oxy]phenyl}[1,2,4]triazolo[1,5-c]quinazolin-5-yl)amino]azepan-2-one], the IC50 on AHR [1] turned out to be 1.17e-09 M; on AHR [2] (mouse Hepa 1c1c7 cells), 0.799 nM.

Consider `O=C1NCC[C@H]1Nc1nc2ccccc2c2nc(-c3ccc(Cl)cc3OC(F)F)nn12` [Example 528, (3R)-3-({2-[4-chloro-2-(difluoromethoxy)phenyl][1,2,4]triazolo[1,5-c]quinazolin-5-yl}amino)pyrrolidin-2-one], for which the results for the IC50 on AHR [1] and on AHR [2] (mouse Hepa 1c1c7 cells) were 9.3e-09 M and 6.94 nM, respectively.

For `COc1ccc(-c2nc3c4ccccc4nc(N[C@H]4CCCCNC4=O)n3n2)c(OC(F)(F)F)c1` [Example 509, (3S)-3-({2-[4-methoxy-2-(trifluoromethoxy)phenyl][1,2,4]triazolo[1,5-c]quinazolin-5-yl}amino)azepan-2-one], the figures for the IC50 at AHR [1] and on AHR [2] (mouse Hepa 1c1c7 cells) were 1.03e-07 M and 56.9 nM, respectively.

For `COc1cscc1-c1nc2c3ccccc3nc(N[C@H]3CCCCNC3=O)n2n1` [Example 336, (3S)-3-{[2-(4-methoxythiophen-3-yl)[1,2,4]triazolo[1,5-c]quinazolin-5-yl]amino}azepan-2-one], the figures for the IC50 against AHR [1] and on AHR [2] (mouse Hepa 1c1c7 cells) were 8.51e-06 M and 434 nM, respectively.

On to `CNCCNC(=O)[C@@H](C)Nc1nc2c(Br)cccc2c2nc(-c3cnn(C)c3)nn12` [Example 989, N^2-[7-bromo-2-(1-methyl-1H-pyrazol-4-yl)[1,2,4]triazolo[1,5-c]quinazolin-5-yl]-N-[2-(methylamino)ethyl]-D-alaninamide], for which the values for the concentration for half-maximal inhibition (IC50) on AHR [1] (firefly luciferase reporter) and at AHR [2] (setting [3]) were 5.18e-07 M and 399 nM, respectively.

As to `COc1cccc(-c2nc3c4ccccc4nc(N[C@@H](Cc4ccc(O)cc4)C(N)=O)n3n2)c1` [Example 84, N^2-[2-(3-methoxyphenyl)[1,2,4]triazolo[1,5-c]quinazolin-5-yl]-L-tyrosinamide], the IC50 on AHR [1] turned out to be 1.01e-06 M; on AHR [2] (mouse Hepa 1c1c7 cells), 1380 nM.

Take `Cc1ccccc1-c1nc2c3ccccc3nc(NC3CCCNC3=O)n2n1` (stereo not drawn) [Example 44, 3-{[2-(2-methylphenyl)[1,2,4]triazolo[1,5-c]quinazolin-5-yl]amino}piperidin-2-one]: the results for the 50% inhibitory concentration (IC50) on AHR [1] and at AHR [2] (mouse Hepa 1c1c7 cells) were 1.57e-08 M and 16.9 nM, respectively.

Regarding `CC[C@@H](Nc1nc2ccccc2c2nc(-c3ccc(S(C)(=O)=O)cc3)nn12)C(N)=O` [Example 376, (2R)-2-({2-[4-(methanesulfonyl)phenyl][1,2,4]triazolo[1,5-c]quinazolin-5-yl}amino)butanamide], the IC50 at AHR [1] was determined as 1.61e-08 M; on AHR [2] (mouse Hepa 1c1c7 cells) it was 4.93 nM.

For the molecule `CCOc1ccc(-c2nc3c4ccccc4nc(N[C@@H]4CCCCNC4=O)n3n2)cc1` [Example 616, (3R)-3-{[2-(4-ethoxyphenyl)[1,2,4]triazolo[1,5-c]quinazolin-5-yl]amino}azepan-2-one], the IC50 worked out at 7.6e-10 M against AHR [1] and 1.07 nM on AHR [2] (mouse Hepa 1c1c7 cells).

For the origin of these results see patent publication US20230113037A1 (Bayer Aktiengesellschaft, priority 2019, published 2023).
